Assay results as given in patent publication US11512074B2, “Substituted diamino heterocyclic carboxamide compound and a composition containing the compound and use thereof” (Shenzhen TargetRx, Inc., priority 2018, dated 2022).

Legend:
[1] = system: Ba/F3 FLT3-ITD cells; experiment: Inhibition of Ba/F3 FLT3-ITD cell proliferation (CTG); format: cell-based; conditions: 72 hours, read-out: BaF3 [FLT3-ITD] IC50
Method: (§1) Cell lines were cultured under the condition of 37° C., 5% CO2 and 95% humidity: cell line Ba/F3 parental (suspended, 3000 cells/well, medium was RPMI-1640+10% FBS+8 ng/ml IL-3), cell line Ba/F3 FLT3-ITD (suspended, 3000 cells/well, medium was RPMI-1640+10% FBS)
(§2) Reagents and materials: Fetal bovine serum (FBS, GBICO, Cat. No. 10099-141), CellTiter-Glo® Luminescent Cell Viability Assay (Promega, Cat. No. G7572), 96-well plate with transparent flat bottom and black walls (Corning®, Cat. No. 3603), control compound AC220 (Selleck, Cat. No. S1526).
(§3) Cell Culture and Inoculation: • 1. Cells in the logarithmic growth phase were harvested and counted using a platelet counter. The cell viability was determined by trypan blue exclusion method to ensure that the cell viability was greater than 90%; • 2. The cell concentration was adjusted and 90 μL of the cell suspension was added into a 96-well plate respectively; • 3. The cells in the 96-well plate were cultured overnight under the condition of 37° C., 5% CO2 and 95% humidity.
(§4) Drug Dilution and Dosing: • 1. The 10-fold drug solutions were prepared with a maximum concentration of 100 μM, which was diluted using a 3.16-fold serial gradient dilution, resulting in 9 concentrations. 10 μL of the drug solutions was added to each well of the 96-well plate inoculated with Ba/F3 parental cells; and each drug concentration was set in triplicate. • 2. The 10-fold drug solutions were prepared with a maximum concentration of 10 μM, which was diluted using a 3.16-fold serial gradient dilution, resulting in 9 concentrations. 10 μL of the drug solutions was added to each well of the 96-well plate inoculated with Ba/F3 FLT3-ITD cells; and each drug concentration was set in triplicate. • 3. The cells in the 96-well plate with drugs were cultured at 37° C., 5% CO2 and 95% humidity for 72 hours, and then CTG analysis was carried out.
(§5) Plate Reading at the End Point: • 1. CTG reagent was thawed and the cell plate was equilibrated to room temperature for 30 minutes; • 2. Equal volume of the CTG solution was added to each well; • 3. The cell plate was shaked on the orbital shaker for 5 minutes to lyse the cells; • 4. The cell plate was placed at room temperature for 20 minutes to stabilize the cold light signal; • 5. The cold light values were read.
(§6) GraphPad Prism 8.0 software was used to analyze the data, and the data was fitted using the non-linear S-curve regression to get a dose-effect curve, and IC50 values were calculated. Cell viability (%)=(Lum of test drug−Lum of medium control)/(Lum of cell control−Lum of medium control)×100%.

[2] = system: Ba/F3 parental cells; experiment: Inhibition of Ba/F3 parental cell proliferation (CTG); format: cell-based; conditions: Mus musculus, BaF3, 72 hours, with IL-3
Method: as §1, §2, §3, §4, §5, §6

[3] = Metabolic stability in human liver microsomes; format: in vitro ADME; conditions: pH 7.4; human liver microsomes 0.5 mg/mL, 1 μM compound
Method: Microsome assay: human liver microsomes: 0.5 mg/mL, Xenotech; rat liver microsomes: 0.5 mg/mL, Xenotech; coenzyme (NADPH/NADH): 1 mM, Sigma Life Science; magnesium chloride: 5 mM, 100 mM phosphate buffer (pH 7.4).
Preparation of stock solutions: Powder of the example compounds and the control compound were accurately weighed and dissolved in DMSO to 5 mM respectively.
Preparation of phosphate buffer (100 mM, pH7.4): A pre-prepared 0.5 M potassium dihydrogen phosphate (150 mL) was mixed with 0.5 M dibasic potassium phosphate (700 mL). The pH of the mixture was adjusted to 7.4 with 0.5 M dibasic potassium phosphate solution. The mixture was diluted 5-fold with ultrapure water before use, and magnesium chloride was added to obtain a phosphate buffer (100 mM) containing 100 mM potassium phosphate, 3.3 mM magnesium chloride, pH 7.4.
A NADPH regeneration system solution (containing 6.5 mM NADP, 16.5 mM G-6-P, 3 U/mL G-6-P D, 3.3 mM magnesium chloride) was prepared and placed on wet ice prior to use.
Preparation of stop solution: an acetonitrile solution containing 50 ng/mL propranolol hydrochloride and 200 ng/mL tolbutamide (internal standard). 25057.5 μL of phosphate buffer (pH 7.4) was taken into a 50 mL centrifuge tube, to which 812.5 μL of human liver microsomes were added, and mixed to obtain a liver microsome dilution with a protein concentration of 0.625 mg/mL. 25057.5 μL of phosphate buffer (pH 7.4) was taken into a 50 mL centrifuge tube, to which 812.5 μL of SD rat microsomes were added, and mixed to obtain a liver microsome dilution with a protein concentration of 0.625 mg/mL.
Incubation of the samples: The stock solutions of the respective compounds were respectively diluted to 0.25 mM with an aqueous solution containing 70% acetonitrile, and used as a working solution, ready for use. 398 μL of the dilutions of human liver microsomes and rat liver microsomes were added to 96-well incubation plates (N=2), respectively, and 2 μL of 0.25 mM working solution was added respectively and mixed.
Metabolic stability assay: 300 μL of pre-chilled stop solution was added to each well of 96-well deep well plates and placed on ice as stop plates. The 96-well incubation plates and NADPH regeneration system were placed in a 37° C. water bath, shaken at 100 rpm and pre-incubated for 5 min. 80 μL of incubation solution was taken out from each well of the incubation plates and added to the stop plates, mixed, and replenished with 20 μL of NADPH regeneration system solution as a 0-min sample. 80 μL of NADPH regeneration system solution was added to each well of the incubation plates to start the reaction and start counting. […] Separately, 100 μL of the reaction solutions was taken at 10, 30, and 90 min after the reaction, respectively, added to stop plates, and vortexed for 3 minutes to terminate the reaction. The stop plates were centrifuged at 5000×g at 4° C. for 10 min. 100 μL of the supernatant was added to a 96-well plate to which 100 μL of distilled water was previously added, mixed, and analyzed by LC-MS/MS.
Data analysis: The peak areas of the corresponding compounds and internal standard were detected by LC-MS/MS system, and the ratio of the peak area of the compounds to the internal standard was calculated.

| SMILES | IC50 [1] [nM] | half-life at 1 μM [3] [h] | microsomal CLint at 1 μM [3] [µL/min/mg] | IC50 [2] [nM] |
| --- | --- | --- | --- | --- |
| [2H]C([2H])([2H])Oc1cc(Nc2nc(NC3CCOCC3)c(CC)nc2C(N)=O)ccc1N1CCC(N2CCN(C([2H])([2H])[2H])CC2)CC1 [Compound T-3, 6-ethyl-3-((3-(methoxy-d3)-4-(4-(4-(methyl-d3)piperazin-1-yl)piperidin-1-yl)phenyl)amino)-5-((tetrahydro-2H-pyran-4-yl)amino)pyrazine-2-carboxamide] | 89 | 3.33 | 6.9 | 5370 |
| [2H]C([2H])([2H])N1CCN(C2CCN(c3ccc(Nc4nc(NC5CCOCC5)c(C([2H])([2H])C([2H])([2H])[2H])nc4C(N)=O)cc3OC)CC2)CC1 [Compound T-5, 6-(ethyl-d5)-3-((3-methoxy-4-(4-(4-(methyl-d3)piperazin-1-yl)piperidin-1-yl)phenyl)amino)-5-((tetrahydro-2H-pyran-4-yl)amino)pyrazine-2-carboxamide] | 94.4 | 3.14 | 7.4 | 9290 |
| [2H]C1([2H])N(C)C([2H])([2H])C([2H])([2H])N(C2CCN(c3ccc(Nc4nc(NC5CCOCC5)c(CC)nc4C(N)=O)cc3OC)CC2)C1([2H])[2H] [Compound T-8, 6-ethyl-3-((3-methoxy-4-(4-(4-methylpiperazin-1-yl-2,2,3,3,5,5,6,6-d8)piperidin-1-yl)phenyl)amino)-5-((tetrahydro-2H-pyran-4-yl)amino)pyrazine-2-carboxamide] | 85 | 4.36 | 5.3 | 6870 |
| CCc1nc(C(N)=O)c(Nc2ccc(N3CCC(N4CCN(C)CC4)CC3)c(OC)c2)nc1NC1CCOCC1 [Gilteritinib, 6-ethyl-3-((3-methoxy-4-(4-(4-methylpiperazin-1-yl)piperidin-1-yl)phenyl)amino)-5-((tetrahydro-2H-pyran-4-yl)amino)pyrazine-2-carboxamide, reference compound] |  | 2.75 | 8.4 |  |

Now from value to compound, other results behind:

| IC50 [1] [nM] | half-life at 1 μM [3] [h] | microsomal CLint at 1 μM [3] [µL/min/mg] | SMILES | IC50 [2] [nM] |
| --- | --- | --- | --- | --- |
| 46.5 |  |  | [2H]C([2H])([2H])Oc1cc(Nc2nc(NC3CCOCC3)c(CC)nc2C(N)=O)ccc1N1CCC(N2CCN(C)CC2)CC1 [Compound T-1, 6-ethyl-3-((3-(methoxy-d3)-4-(4-(4-methylpiperazin-1-yl)piperidin-1-yl)phenyl)amino)-5-((tetrahydro-2H-pyran-4-yl)amino)pyrazine-2-carboxamide] | 9720 |
| 51.3 | 3.63 | 6.4 | [2H]C([2H])([2H])N1CCN(C2CCN(c3ccc(Nc4nc(NC5CCOCC5)c(CC)nc4C(N)=O)cc3OC)CC2)CC1 [Compound T-2, 6-ethyl-3-((3-methoxy-4-(4-(4-(methyl-d3)piperazin-1-yl)piperidin-1-yl)phenyl)amino)-5-((tetrahydro-2H-pyran-4-yl)amino)pyrazine-2-carboxamide] | 7160 |
| 72 | 7.88 | 2.9 | [2H]C([2H])([2H])N1C([2H])([2H])C([2H])([2H])N(C2CCN(c3ccc(Nc4nc(NC5CCOCC5)c(CC)nc4C(N)=O)cc3OC)CC2)C([2H])([2H])C1([2H])[2H] [Compound T-9, 6-ethyl-3-((3-methoxy-4-(4-(4-(methyl-d3)piperazin-1-yl-2,2,3,3,5,5,6,6-d8)piperidin-1-yl)phenyl)amino)-5-((tetrahydro-2H-pyran-4-yl)amino)pyrazine-2-carboxamide] | > 10000 |
